Experimental data published in ChEMBL document CHEMBL5523766 (J Med Chem, 2024).

What was measured:
[1] = molecular target: ATR/ATRIP (Homo sapiens, UniProt Q13535); assay: Inhibition of ATR/ATRIP (unknown origin) using 5-FAM-AK-17 as substrate preincubated with compound for 10 mins followed by ATP addition and measured after 240 mins by mobility shift assay; format: protein-complex assay
[2] = test system: SUD4; assay: Antiproliferative activity against human SU-DHL-4 cells assessed as inhibition of cell growth incubated for 72 hrs by MTS assay; format: functional, cell-based; settings: SU-DHL-4, 72 h
[3] = test system: Granta-519; assay: Induction of apoptosis in human Granta-519 cells assessed as viable cells at 2000 nM incubated for 48 hrs by Annexin-V-FITC/propidium iodide staining based flow cytometry (reference value: 92.7 %); format: functional; settings: read-out: Activity
[4] = test system: DLD-1; assay: Antiproliferative activity against human DLD-1 cells assessed as inhibition of cell growth incubated for 72 hrs by MTS assay; format: functional, cell-based; settings: DLD-1, 72 h
[5] = test system: PC-3; assay: Antiproliferative activity against human PC-3 cells assessed as inhibition of cell growth incubated for 72 hrs by MTS assay; format: functional, cell-based; settings: PC-3, 72 h
[6] = test system: A2780; assay: Antiproliferative activity against human A2780 cells assessed as inhibition of cell growth incubated for 72 hrs by MTS assay; format: functional, cell-based; settings: A2780, 72 h
[7] = test system: HT-29; assay: Antiproliferative activity against human HT-29 cells assessed as inhibition of cell growth incubated for 72 hrs by MTS assay; format: functional, cell-based; settings: HT-29, 72 h
[8] = test system: Granta-519; assay: Induction of cell cycle arrest in human Granta-519 cells assessed as accumulation of cells at G1 phase at 2000 nM incubated for 24 hrs by propidium iodide staining based flow cytometry (reference value: 45.83 %); format: functional
[9] = test system: OCI-Ly10; assay: Antiproliferative activity against human OCI-Ly10 cells assessed as inhibition of cell growth incubated for 72 hrs by MTS assay; format: functional, cell-based; settings: OCI-Ly10, 72 h
[10] = test system: HCT-116; assay: Antiproliferative activity against human HCT-116 cells assessed as inhibition of cell growth incubated for 72 hrs by MTS assay; format: functional, cell-based; settings: HCT-116, 72 h
[11] = test system: CAPAN-1; assay: Antiproliferative activity against human CAPAN-1 cells assessed as inhibition of cell growth incubated for 72 hrs by MTS assay; format: functional, cell-based; settings: CAPAN-1, 72 h
[12] = test system: LoVo; assay: Antiproliferative activity against human LoVo cells assessed as inhibition of cell growth incubated for 72 hrs by MTS assay; format: functional, cell-based
[13] = test system: Granta-519; assay: Induction of cell cycle arrest in human Granta-519 cells assessed as accumulation of cells at S phase at 2000 nM incubated for 24 hrs by propidium iodide staining based flow cytometry (reference value: 44.81 %); format: functional
[14] = test system: NCI-H446; assay: Antiproliferative activity against human NCI-H446 cells assessed as inhibition of cell growth incubated for 72 hrs by MTS assay; format: functional, cell-based; settings: NCI-H446, 72 h
[15] = test system: Granta-519; assay: Induction of apoptosis in human Granta-519 cells assessed as early apoptotic cells at 2000 nM incubated for 48 hrs by Annexin-V-FITC/propidium iodide staining based flow cytometry (reference value: 3.75 %); format: functional
[16] = test system: Granta-519; assay: Antiproliferative activity against human Granta-519 cells assessed as inhibition of cell growth incubated for 72 hrs by MTS assay; format: functional, cell-based; settings: Granta-519, 72 h
[17] = test system: Granta-519; assay: Induction of apoptosis in human Granta-519 cells assessed as late apoptotic cells at 2000 nM incubated for 48 hrs by Annexin-V-FITC/propidium iodide staining based flow cytometry (reference value: 3.07 %); format: functional
[18] = test system: Granta-519; assay: Induction of apoptosis in human Granta-519 cells assessed as necrotic cells at 2000 nM incubated for 48 hrs by Annexin-V-FITC/propidium iodide staining based flow cytometry (reference value: 0.429 %); format: functional

ATR/ATRIP, sequence (Q13535 whole entry): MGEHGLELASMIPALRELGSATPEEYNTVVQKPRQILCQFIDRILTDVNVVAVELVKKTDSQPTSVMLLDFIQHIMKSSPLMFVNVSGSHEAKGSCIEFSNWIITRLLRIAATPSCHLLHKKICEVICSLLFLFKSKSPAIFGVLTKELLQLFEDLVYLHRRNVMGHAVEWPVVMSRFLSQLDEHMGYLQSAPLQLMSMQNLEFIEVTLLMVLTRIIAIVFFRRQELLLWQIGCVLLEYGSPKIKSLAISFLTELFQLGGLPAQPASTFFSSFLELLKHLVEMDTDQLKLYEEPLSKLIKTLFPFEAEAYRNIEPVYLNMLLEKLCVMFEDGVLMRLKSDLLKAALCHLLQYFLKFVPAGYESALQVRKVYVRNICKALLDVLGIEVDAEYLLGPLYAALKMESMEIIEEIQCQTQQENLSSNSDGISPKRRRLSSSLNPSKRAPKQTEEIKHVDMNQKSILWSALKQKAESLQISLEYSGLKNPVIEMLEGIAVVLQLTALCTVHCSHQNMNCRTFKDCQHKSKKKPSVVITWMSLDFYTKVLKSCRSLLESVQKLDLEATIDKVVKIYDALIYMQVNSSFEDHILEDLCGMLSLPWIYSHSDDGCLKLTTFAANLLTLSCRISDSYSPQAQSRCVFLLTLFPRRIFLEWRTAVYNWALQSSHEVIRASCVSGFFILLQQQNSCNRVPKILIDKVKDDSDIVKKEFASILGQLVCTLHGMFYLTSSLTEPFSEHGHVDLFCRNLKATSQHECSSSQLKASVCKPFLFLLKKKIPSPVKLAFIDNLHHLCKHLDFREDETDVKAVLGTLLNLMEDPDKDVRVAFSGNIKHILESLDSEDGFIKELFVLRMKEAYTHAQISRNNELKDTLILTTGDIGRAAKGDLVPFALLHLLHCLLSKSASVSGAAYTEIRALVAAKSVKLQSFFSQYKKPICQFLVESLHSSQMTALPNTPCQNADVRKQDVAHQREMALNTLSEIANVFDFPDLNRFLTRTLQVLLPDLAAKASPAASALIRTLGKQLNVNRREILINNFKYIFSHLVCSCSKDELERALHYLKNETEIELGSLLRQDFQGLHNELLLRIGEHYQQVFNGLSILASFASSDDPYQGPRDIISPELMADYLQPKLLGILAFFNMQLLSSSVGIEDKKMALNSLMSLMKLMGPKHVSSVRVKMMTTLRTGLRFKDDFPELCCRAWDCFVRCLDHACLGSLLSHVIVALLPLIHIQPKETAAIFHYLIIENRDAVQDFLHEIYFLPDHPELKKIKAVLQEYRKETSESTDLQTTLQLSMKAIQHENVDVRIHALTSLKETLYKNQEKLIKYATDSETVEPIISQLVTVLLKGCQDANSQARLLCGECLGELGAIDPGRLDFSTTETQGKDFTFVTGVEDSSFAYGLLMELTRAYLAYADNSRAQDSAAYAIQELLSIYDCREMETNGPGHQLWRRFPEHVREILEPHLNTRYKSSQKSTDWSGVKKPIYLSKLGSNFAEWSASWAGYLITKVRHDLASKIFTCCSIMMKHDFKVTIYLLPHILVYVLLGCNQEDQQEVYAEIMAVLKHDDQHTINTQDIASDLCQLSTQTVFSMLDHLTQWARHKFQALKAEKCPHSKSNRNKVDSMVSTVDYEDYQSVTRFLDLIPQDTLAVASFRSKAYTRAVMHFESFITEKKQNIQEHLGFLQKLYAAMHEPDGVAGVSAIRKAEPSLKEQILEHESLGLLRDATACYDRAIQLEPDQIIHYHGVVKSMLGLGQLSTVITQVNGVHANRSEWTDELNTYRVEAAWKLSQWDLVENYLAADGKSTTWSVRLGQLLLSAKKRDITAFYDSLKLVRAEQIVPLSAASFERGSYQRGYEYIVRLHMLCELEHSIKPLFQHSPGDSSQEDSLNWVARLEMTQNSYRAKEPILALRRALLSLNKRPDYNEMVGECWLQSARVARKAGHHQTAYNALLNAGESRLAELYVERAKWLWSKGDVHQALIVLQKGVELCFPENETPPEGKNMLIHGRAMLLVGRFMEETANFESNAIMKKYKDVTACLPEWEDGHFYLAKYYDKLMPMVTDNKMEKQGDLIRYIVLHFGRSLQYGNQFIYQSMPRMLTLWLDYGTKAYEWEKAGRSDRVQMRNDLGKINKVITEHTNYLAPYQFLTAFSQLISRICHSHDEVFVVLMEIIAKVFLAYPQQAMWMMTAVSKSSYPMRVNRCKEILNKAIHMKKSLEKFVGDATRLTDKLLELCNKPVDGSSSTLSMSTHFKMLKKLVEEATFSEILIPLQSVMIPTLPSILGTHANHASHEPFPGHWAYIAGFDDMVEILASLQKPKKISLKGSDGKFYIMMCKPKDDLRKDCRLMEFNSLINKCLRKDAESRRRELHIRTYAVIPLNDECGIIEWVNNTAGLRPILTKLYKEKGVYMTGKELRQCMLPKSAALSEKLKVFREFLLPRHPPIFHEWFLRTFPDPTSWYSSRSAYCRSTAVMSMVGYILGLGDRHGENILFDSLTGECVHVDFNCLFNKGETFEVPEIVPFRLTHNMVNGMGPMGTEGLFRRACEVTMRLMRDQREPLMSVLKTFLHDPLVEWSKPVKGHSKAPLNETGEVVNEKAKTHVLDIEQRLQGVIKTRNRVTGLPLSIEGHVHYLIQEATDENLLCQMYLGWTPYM
ATR/ATRIP, sequence (Q8WXE1 whole entry, further chain): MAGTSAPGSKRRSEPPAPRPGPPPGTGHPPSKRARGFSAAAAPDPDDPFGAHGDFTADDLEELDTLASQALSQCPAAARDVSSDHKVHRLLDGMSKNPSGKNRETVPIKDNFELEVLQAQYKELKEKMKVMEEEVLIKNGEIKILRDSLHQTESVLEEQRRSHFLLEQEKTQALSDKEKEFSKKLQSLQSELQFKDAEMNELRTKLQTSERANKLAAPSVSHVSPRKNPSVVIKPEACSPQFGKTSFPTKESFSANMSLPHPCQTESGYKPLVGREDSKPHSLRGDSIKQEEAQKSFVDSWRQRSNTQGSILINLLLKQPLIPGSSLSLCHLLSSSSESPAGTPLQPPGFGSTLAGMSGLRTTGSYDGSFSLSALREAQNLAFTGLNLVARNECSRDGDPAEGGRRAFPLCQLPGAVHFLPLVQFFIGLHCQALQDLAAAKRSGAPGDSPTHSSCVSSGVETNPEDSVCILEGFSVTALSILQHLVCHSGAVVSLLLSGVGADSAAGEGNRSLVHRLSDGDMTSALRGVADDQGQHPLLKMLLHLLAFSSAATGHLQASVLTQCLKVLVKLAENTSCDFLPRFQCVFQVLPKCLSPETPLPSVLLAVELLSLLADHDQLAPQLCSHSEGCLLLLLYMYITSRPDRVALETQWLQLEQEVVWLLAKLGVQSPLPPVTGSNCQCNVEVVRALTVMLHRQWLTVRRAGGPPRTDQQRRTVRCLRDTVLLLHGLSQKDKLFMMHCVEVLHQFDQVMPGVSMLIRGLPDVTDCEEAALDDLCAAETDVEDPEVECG

Row | Compound | IC50 [1] | also measured
1 | C[C@@H]1COCCN1c1nc(-c2cccc3[nH]ccc23)nc2c1ccn2S(C)(=O)=O | 2.3 nM | –
2 | C[C@@H]1COCCN1c1nc(-c2cccc3[nH]ccc23)nc2c1ccn2S(=O)(=O)C1CCCCC1 | 205 nM | –
3 | C[C@@H]1COCCN1c1nc(-c2cc(Cl)cc3[nH]ccc23)nc2c1ccn2S(C)(=O)=O | 4.4 nM | –
4 | C[C@@H]1COCCN1c1nc(-c2cccc3[nH]ccc23)nc2c1CS(=O)(=O)C2 | 32.1 nM | –
5 | CC(C)S(=O)(=O)n1ccc2c(N3CCOC[C@H]3C)nc(-c3cccc4[nH]ccc34)nc21 | 8 nM | –
6 | C[C@@H]1COCCN1c1cc(N2CCCS2(=O)=O)nc(-c2cccc3[nH]ccc23)n1 | 43.5 nM | –
7 | C[C@@H]1COCCN1c1nc(-c2cccc3sccc23)nc2c1ccn2S(C)(=O)=O | 28 nM | –
8 | C[C@@H]1COCCN1c1nc(-c2cccc3[nH]ccc23)nc2c1ccn2S(=O)(=O)C1CC1 | 3.8 nM | –
9 | C[C@@H]1COCCN1c1nc(-c2cnc3ccccc3c2)nc2c1ccn2S(C)(=O)=O | 630 nM | –
10 | C[C@@H]1COCCN1c1nc(-c2cncc3ccccc23)nc2c1ccn2S(C)(=O)=O | 46.9 nM | –
11 | C[C@@H]1COCCN1c1nc(-c2ccc3nccn3c2)nc2c1ccn2S(C)(=O)=O | 625 nM | –
12 | C[C@@H]1COCCN1c1nc(-c2cccc3[nH]ccc23)nc2c1ccn2S(=O)(=O)c1cccs1 | 84.9 nM | –
13 | C[C@@H]1COCCN1c1cc(N(C2CC2)S(C)(=O)=O)nc(-c2cccc3[nH]ccc23)n1 | 3.3 nM | –
14 | C[C@@H]1COCCN1c1cc(C2(S(C)(=O)=O)CC2)nc(-c2cccc3[nH]ccc23)n1 | – | IC50 [2]: 2380 nM; viability at 2 µM [3]: 80.6%; IC50 [4]: 3470 nM; IC50 [5]: 8430 nM; IC50 [6]: 460 nM; IC50 [7]: 2940 nM; Activity [8]: 35.65%; IC50 [9]: 1030 nM; IC50 [10]: 1470 nM; IC50 [11]: 7050 nM; IC50 [12]: 850 nM; Activity [13]: 61.62%; IC50 [14]: 3900 nM; Activity [15]: 9.18%; IC50 [16]: 500 nM; Activity [17]: 9.46%; Activity [18]: 0.742%

More lines, main results first:

Row | IC50 [1] | Compound | also measured
15 | 7.8 nM | C[C@@H]1COCCN1c1cc(C2CCCCS2(=O)=O)nc(-c2cccc3[nH]ccc23)n1 (stereo partly drawn) | –
16 | 5.3 nM | C[C@@H]1COCCN1c1nc(-c2cccc3[nH]ccc23)nc2c1ccn2S(=O)(=O)N(C)C | –
17 | 746 nM | C[C@@H]1COCCN1c1cc(C2(S(=O)(=O)N(C)C)CC2)nc(-c2cccc3[nH]ccc23)n1 | –
18 | 3690 nM | C[C@@H]1COCCN1c1nc(-c2ccnc3cccnc23)nc2c1ccn2S(C)(=O)=O | –
19 | 5.8 nM | C[C@@H]1COCCN1c1nc(-c2cccc3[nH]ccc23)nc2c1cnn2S(C)(=O)=O | –
20 | 270 nM | C[C@@H]1COCCN1c1nc(-c2cccc3[nH]ccc23)nc2c1ccn2S(=O)(=O)c1ccccc1 | –
21 | 9.4 nM | C[C@@H]1COCCN1c1nc(-c2cc(C#N)cc3[nH]ccc23)nc2c1ccn2S(C)(=O)=O | –
22 | 9.4 nM | C[C@@H]1COCCN1c1cc(C2CCCS2(=O)=O)nc(-c2cccc3[nH]ccc23)n1 (stereo partly drawn) | –
23 | 3670 nM | Cc1ccc(S(=O)(=O)n2ccc3c(N4CCOC[C@H]4C)nc(-c4cccc5[nH]ccc45)nc32)cc1 | –
24 | 4.3 nM | CCS(=O)(=O)n1ccc2c(N3CCOC[C@H]3C)nc(-c3cccc4[nH]ccc34)nc21 | –
25 | 7.8 nM | CC(C)N(c1cc(N2CCOC[C@H]2C)nc(-c2cccc3[nH]ccc23)n1)S(C)(=O)=O | –
26 | 39.5 nM | C[C@@H]1COCCN1c1nc(-c2cccc3ccccc23)nc2c1ccn2S(C)(=O)=O | –
27 | 9.2 nM | C[C@@H]1COCCN1c1nc(-c2cc(C(F)(F)F)cc3[nH]ccc23)nc2c1ccn2S(C)(=O)=O | –
28 | 53.1 nM | C[C@@H]1COCCN1c1nc(-c2ccc3[nH]ccc3c2)nc2c1ccn2S(C)(=O)=O | –
29 | 684 nM | C[C@@H]1COCCN1c1nc(-c2cccc3occc23)nc2c1ccn2S(C)(=O)=O | –
30 | 10200 nM | C[C@@H]1COCCN1c1nc(-c2cccc3[nH]ccc23)nc2c1ccn2S(=O)(=O)c1ccc(-c2ccccc2)cc1 | –
31 | 245 nM | C[C@@H]1COCCN1c1nc(-c2ccc3[nH]cnc3c2)nc2c1ccn2S(C)(=O)=O | –
32 | 5.3 nM | COc1cc(-c2nc(N3CCOC[C@H]3C)c3ccn(S(C)(=O)=O)c3n2)c2cc[nH]c2c1 | –
